Assay results from patent US20230014918A1, “COMPOSITIONS FOR USE AS ANTIOXIDANT” (priority 2019, published 2023).
“Also recorded” adds a separate entry of the source.

Legend:
mice mesenteric arteries [1] = assay: Total ROS production by dihydroethidium (DHE) in Angiotensin II-stimulated mice mesenteric arteries; assay type: cell-based; settings: pre-treatment 50 μg/mL for 1 hour, then Angiotensin II for 15 minutes
Method: (§1) Dihydroethidium (DHE, Life Technologies) was used to evaluate production of reactive oxygen species (ROS) in mouse mesenteric arteries, as previously described. Briefly, vessels were incubated with 5 μM of DHE for 20 min and subsequently observed under a fluorescence microscope (Zeiss). Images were acquired by a digital camera system (Olympus Soft Imaging Solutions). […] After treatment, vessels were incubated with Krebs solution containing 5 μM DHR123 for 30 min at 37° C., and then washed two times with PBS prior to fluorescence measurement using a fluorescence microplate reader (TECAN infinite 200 Pro).

NADPH oxidase = NADPH oxidase activity, lucigenin-enhanced chemiluminescence assay in mesenteric arteries; assay type: cell-based, mice; settings: after stimulation with Angiotensin II
Method: Vessels were homogenized in a buffer containing protease inhibitors (mmol/L: 20 monobasic potassium phosphate, 1 EGTA, 0.01 aprotinin, 0.01 leupeptin, 0.01 pepstatin, 0.5 phenylmethylsulfonyl fluoride, pH 7.0). Protein content was measured in an aliquot of the homogenate by Bradford method. In some experiments, cells and vessels were pre-incubated with pharmacological inhibitors before measurements. The reaction was started by the addition of NADPH (0.1 mmol/l) and lucigenin (5 μmol/l) to each well. The chemiluminescence was measured using Tecan Infinite Pro M200 multimode microplate at 37° C.
Vessels were pre-treated with single anthocyanins (50 μg/mL) for 1 hours and then stimulated with Angiotensin II for 15 minutes prior to the acquisition. […] Data are expressed as increase of chemiluminescence per minute.

mice mesenteric arteries [2] = assay: Total ROS production by Dihydrorhodamine 123 (DHR123) in mouse vessels; assay type: cell-based; settings: vessels stimulated with Angiotensin II
Method: as §1

mice mesenteric arteries [3] = assay: Vascular reactivity of phenylephrine-precontracted mice mesenteric arteries; assay type: cell-based; settings: for direct dose-dependent vasorelaxation compared with Healthberry 865 / vasorelaxation reached: single anthocyanins; for direct dose-dependent vasorelaxation compared with Healthberry 865: 1-100 μg/mL; for vasorelaxation reached: dose-response curves 1-100 μg/mL
Method: Aorta, carotid, femoral arteries and second-order branches of the mesenteric arterial tree were removed from mice to perform vascular studies. […] First, an analysis of vascular reactivity curves was performed. In particular, vasoconstriction was assessed with 80 mmol/L of KCI or with increasing doses of phenylephrine (from 10^-9 M to 10^-6 M) in control conditions. […] Caution was taken to avoid endothelial damage; functional integrity was reflected by the response to acetylcholine (from 10^-9 M to 10^-6 M).

mice mesenteric arteries [4] = assay: Evaluation of NO production by DAF-FM in mice mesenteric arteries; assay type: cell-based; settings: single anthocyanins 50 μg/mL
Method: Production of NO was assessed as previously described (Carrizzo et al. 2016). […] Mesenteric segments were cut in 5-μm thick sections, observed under a fluorescence microscope, subsequently counterstained with haematoxylin and eosin and observed under a light microscope.
Scale bar, 50 μm. E) Semiquantitative analyses of immunoblots of mice mesenteric arteries treated with HB (100 μg/mL) alone, or HB plus Akt inhibitor or LY294002, columns are the mean±SEM of three independent experiments. Statistical analyses were performed using two-way ANOVA followed Bonferroni post-hoc test. *p<0.05; **p<0.01, ***p<0.001.

Compound | Angiotensin II-induced ROS formation (DHE) (mice mesenteric arteries [1]) | NADPH oxidase (NOX) activity (NADPH oxidase) | total ROS production (DHR123) (mice mesenteric arteries [2]) | direct dose-dependent vasorelaxation compared with Healthberry 865 (mice mesenteric arteries [3]) | vasorelaxation reached (mice mesenteric arteries [3]) | nitric oxide production (DAF-FM fluorescence) (mice mesenteric arteries [4]) | vasorelaxant effect in presence of Akt inhibitor (mice mesenteric arteries [3]; increasing doses, Akt inhibitor) | vasorelaxant effect in presence of PI3K inhibitor LY294002 (mice mesenteric arteries [3]; increasing doses, pre-treatment with LY294002) | vasorelaxant effect in presence of L-NAME (mice mesenteric arteries [3]; increasing doses, pre-treatment with eNOS inhibitor L-NAME) | vasorelaxant effect in presence of Dorsomorphin (mice mesenteric arteries [3]; increasing doses, selective AMPK inhibitor Dorsomorphin)
C[C@@H]1O[C@@H](OC[C@H]2O[C@@H](Oc3cc4c(O)cc(O)cc4[o+]c3-c3ccc(O)c(O)c3)[C@H](O)[C@@H](O)[C@@H]2O)[C@H](O)[C@H](O)[C@H]1O [C3-rut, Cyanidin-3-rutinoside] | able to reproduce the antioxidant action of Healthberry 865® | able to reduce NOX activity | a similar effect was reproduced | none of the single anthocyanins was able to evoke a dose-dependent vasorelaxation comparable; also recorded: vasorelaxant effects evoked by DP3-gal, C3-rut and DP3-ara were observed | ~36,5% | – | – | – | – | –
COc1cc(-c2[o+]c3cc(O)cc(O)c3cc2O[C@@H]2O[C@H](CO)[C@@H](O)[C@H](O)[C@H]2O)cc(O)c1O [PT3-glu, Petunidin-3-glucoside] | – | – | – | none of the single anthocyanins was able to evoke a dose-dependent vasorelaxation comparable | – | – | – | – | – | –
Oc1cc(O)c2cc(O[C@H]3OC[C@H](O)[C@H](O)[C@H]3O)c(-c3cc(O)c(O)c(O)c3)[o+]c2c1 [DP3-ara, Delphinidin-3-arabinoside] | – | – | – | none of the single anthocyanins was able to evoke a dose-dependent vasorelaxation comparable; also recorded: vasorelaxant effects evoked by DP3-gal, C3-rut and DP3-ara were observed | – | – | – | – | – | –
Peonidin-3-galactoside [PEO3-gal] | able to reproduce the antioxidant action of Healthberry 865® | able to reduce NOX activity | a similar effect was reproduced | none of the single anthocyanins was able to evoke a dose-dependent vasorelaxation comparable | – | – | – | – | – | –
OC[C@H]1O[C@@H](Oc2cc3c(O)cc(O)cc3[o+]c2-c2cc(O)c(O)c(O)c2)[C@H](O)[C@@H](O)[C@@H]1O [DP3-glu, Delphinidin-3-glucoside] | able to reproduce the antioxidant action of Healthberry 865® | able to reduce NOX activity | a similar effect was reproduced | none of the single anthocyanins was able to evoke a dose-dependent vasorelaxation comparable | – | – | – | – | – | –
OC[C@H]1O[C@@H](Oc2cc3c(O)cc(O)cc3[o+]c2-c2ccc(O)c(O)c2)[C@H](O)[C@@H](O)[C@@H]1O [C3-glu, Cyanidin-3-glucoside] | able to reproduce the antioxidant action of Healthberry 865® | able to reduce NOX activity; also recorded: most powerful anthocyanins closer to the potent effect of Healthberry 865® | a similar effect was reproduced | none of the single anthocyanins was able to evoke a dose-dependent vasorelaxation comparable | – | – | – | – | – | –
OC[C@H]1O[C@@H](Oc2cc3c(O)cc(O)cc3[o+]c2-c2ccc(O)c(O)c2)[C@H](O)[C@@H](O)[C@H]1O [C3-gal, Cyanidin-3-galactoside] | – | – | – | very similar to that induced by Healthberry 865® | – | significant increase of nitric oxide production | did not inhibit C3-gal vascular action | did not inhibit C3-gal vascular action | significantly reduced its vasorelaxant properties | completely lost its vasorelaxant capability
COc1cc(-c2[o+]c3cc(O)cc(O)c3cc2O[C@@H]2O[C@H](CO)[C@@H](O)[C@H](O)[C@H]2O)cc(OC)c1O [MAL3-glu, Malvidin-3-glucoside] | able to reproduce the antioxidant action of Healthberry 865® | able to reduce NOX activity; also recorded: most powerful anthocyanins closer to the potent effect of Healthberry 865® | a similar effect was reproduced | none of the single anthocyanins was able to evoke a dose-dependent vasorelaxation comparable | – | – | – | – | – | –
OC[C@H]1O[C@@H](Oc2cc3c(O)cc(O)cc3[o+]c2-c2cc(O)c(O)c(O)c2)[C@H](O)[C@@H](O)[C@H]1O [DP3-gal, Delphinidin-3-galactoside] | – | – | – | none of the single anthocyanins was able to evoke a dose-dependent vasorelaxation comparable; also recorded: vasorelaxant effects evoked by DP3-gal, C3-rut and DP3-ara were observed | about 32,5% | – | – | – | – | –
COc1cc(-c2[o+]c3cc(O)cc(O)c3cc2O[C@@H]2O[C@H](CO)[C@H](O)[C@H](O)[C@H]2O)cc(OC)c1O [MAL3-gal, Malvidin-3-galactoside] | able to reproduce the antioxidant action of Healthberry 865® | able to reduce NOX activity | a similar effect was reproduced | none of the single anthocyanins was able to evoke a dose-dependent vasorelaxation comparable | – | – | – | – | – | –
